Key:
[1] = test system: Synechocystis sp. strain 6803; test: Effect of copper on activity of hydrazones: in vitro growth inhibition of Synechocystis in BG-11 Cu minus / Cu plus medium (Example 11); format: cell-based; conditions: for inhibition of growth at 0.0125 µg/mL / inhibition of growth at 0.00625 µg/mL / inhibition of growth at 0.05 µg/mL: Synechocystis, BG-11 Cu minus medium, read-out: % Inhn. Minus Copper Observed; for inhibition of growth at 0.0125 µg/mL / % Inhn. Plus Copper Observed / inhibition of growth at 0.00625 µg/mL / inhibition of growth at 0.05 µg/mL: 72 h; for % Inhn. Plus Copper Observed: BG-11 Cu plus medium
Procedure, shortened: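 Synechocystis sp. 6803 in Chelex-treated, copper-free BG-11 (pH 7.1) or the same medium plus 0.2 μM CuCl2, inoculated from a 4×10^5/mL suspension. Growth after 72 h at 27 °C was measured by light scattering and expressed as % inhibition versus compound-free wells. Copper-plus results were compared with Colby-predicted values.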

[2] = test system: Synechocystis sp. strain 6803; test: Growth inhibition of Synechocystis by hydrazones and isolated metal-hydrazone complexes, BG-11 Cu minus medium (Example 12); format: cell-based; conditions: for inhibition of growth at 0.05 µg/mL / Complex % Inhn.: Test Concn. 0.05 μg/ml
Procedure: In vitro toxicity assays against the cyanobacterium (blue-green alga) Synechocystis sp. strain 6803 were conducted using BG-11 medium except that copper micronutrient, normally included as CuSO4.5H2O, was omitted. The medium, termed BG-11 Cu minus, was prepared by dissolving 1.5 g NaNO3, 40 mg K2HPO4, 6 mg citric acid, 1 mg Na2EDTA and 20 mg Na2CO3 in 1 liter of milli Q water and treating the solution with 0.5 g Chelex 100 resin (Bio-Rad Analytical grade, 50-100 mesh, sodium form, cat#142-2822) by stifling at room temperature for 1 h. 900 mL were decanted and 67.5 mg MgSO4.7H2O, 32.4 mg […], 5.4 mg ferric ammonium citrate and 0.9 mL trace metal mix A5 without copper (2.86 g H3BO3, 1.81 g MnCl2.4H2O, 222 mg ZnSO4.7H2O, 390 mg Na2MoO4.2H2O and Co(NO3)2.6H2O in 1 L Milli Q water) was added. The pH was adjusted to 7.1 and the medium was filter-sterilized. Medium containing copper (BG-11 Cu plus) was prepared by adding CuCl2.2H2O to the BG-11 Cu minus medium at 0.2 μM. Test compounds were dissolved in dimethylsulfoxide (DMSO) at 2 mg/mL then appropriate dilutions in BG-11 Cu minus and BG-11 Cu plus media were prepared in sterilized microcentrifuge tubes. 100 μL aliquots were dispensed into flat-bottomed 96-well microtiter plates. Synechocystis was maintained under 24 h of light on BG-11 agar plates at 27° C. A loopful of cells was added to 50 mL of BG-11 Cu minus growth medium and the culture was incubated with shaking at 200 rpm at 27° C. for 24 h. The culture (10 to 20 mL aliquot) was centrifuged in a bench centrifuge at 2400 rpm for 2 min. The resulting cell pellet was resuspended in 5 mL sterile milli Q water (which had been treated with Chelex 100 resin using 0.5 g resin per liter of water by stirring at room temperature for 1 h), and recentrifuged. The cells were resuspended in BG-11 Cu minus medium, and the suspension adjusted to 4×10^5 spores per mL. Microtiter plates containing compounds as described above were inoculated with 100 μL of this cell suspension and the plates incubated at 27° C. for 72 h before assessing algal growth by measuring light scattering in a NepheloStar plate reader. Growth inhibition was determined by comparing growth in the presence of test compound with growth in control wells lacking test compound. Hydrazones and their isolated metal complexes were compared with respect to their in vitro activity toward C. reinhardtii and the cyanobacterium (blue-green alga) Synechocystis sp. strain 6803. Metal complexes of hydrazones were prepared by precipitation from ethanol with various metal salts at 1:1, 2:1 or 3:1 molar ratios, as described in general by Ainscough, Brodie, Dobbs, Ranford, and Waters (Inorganica Chimica Acta 1998, 267, 27-38, which is expressly incorporated by reference herein). In vitro assays against Synechocystis were conducted as described in Example 11 using BG-11 Cu minus medium. Growth inhibition was determined by comparing growth in the presence of test compound with growth in control wells lacking test compound.

[3] = Synechocystis, read-out: Hydrazone % Inhn.

C/C(=N\NC(=O)c1ccc(Cl)cc1)c1cc(Cl)cc(Cl)c1O [Compound 12]
inhibition of growth at 0.0125 µg/mL ([1]; Test Concn. 0.0125 μg/mL): 21% | % Inhn. Plus Copper Observed ([1]; Test Concn. 0.0125 μg/mL): 82%

O=C(N/N=C/c1c(Cl)ccc(Cl)c1O)c1ccc(Cl)cc1 [Compound 45]
inhibition of growth at 0.00625 µg/mL ([1]; Test Concn. 0.00625 μg/mL): 33% | % Inhn. Plus Copper Observed ([1]; Test Concn. 0.00625 μg/mL): 78%

O=C(N/N=C/c1c(C(F)(F)F)ccc(Cl)c1O)c1ccc(Cl)cc1 [Compound 56]
inhibition of growth at 0.0125 µg/mL ([1]; Test Concn. 0.0125 μg/mL): 28% | % Inhn. Plus Copper Observed ([1]; Test Concn. 0.0125 μg/mL): 75%

O=C(N/N=C/c1cc(C(F)(F)F)cc(C(F)(F)F)c1O)c1ccc(Cl)cc1 [Compound 32]
inhibition of growth at 0.05 µg/mL [2, 3]: 68% | inhibition of growth at 0.05 µg/mL ([1]; Test Concn. 0.05 μg/mL): 26% | % Inhn. Plus Copper Observed ([1]; Test Concn. 0.05 μg/mL): 91%

O=C(N/N=C/c1cccc(Cl)c1O)c1ccc(Cl)cc1 [Compound 52]
inhibition of growth at 0.05 µg/mL [2, 3]: 45% | inhibition of growth at 0.0125 µg/mL ([1]; Test Concn. 0.0125 μg/mL): 8% | % Inhn. Plus Copper Observed ([1]; Test Concn. 0.0125 μg/mL): 90%

O=C(N/N=C/c1cc(Cl)cc(Cl)c1O)c1ccccc1O [Compound 7]
inhibition of growth at 0.0125 µg/mL ([2]; Synechocystis, Test Concn. 0.0125 μg/ml, read-out: Hydrazone % Inhn.): 62% | inhibition of growth at 0.05 µg/mL ([1]; Test Concn. 0.05 μg/mL): 22% | % Inhn. Plus Copper Observed ([1]; Test Concn. 0.05 μg/mL): 96%

O=C(N/N=C/c1cc(Cl)cc(Br)c1O)c1ccccc1 [Compound 14]
inhibition of growth at 0.05 µg/mL ([1]; Test Concn. 0.05 μg/mL): 50% | % Inhn. Plus Copper Observed ([1]; Test Concn. 0.05 μg/mL): 97%

O=C(NN=Cc1cc(Cl)cc(Cl)c1O)c1ccccc1.O=C(NN=Cc1cc(Cl)cc(Cl)c1O)c1ccccc1.[Cl-].[Cl-].[Zn+2] [Compound 78]
Complex % Inhn. [2]: 59%

O=C(N/N=C/c1cc(Cl)cc(Cl)c1O)c1ccccc1.O=C(N/N=C/c1cc(Cl)cc(Cl)c1O)c1ccccc1.[Cl-].[Cl-].[Cu+2] [Compound 76]
Complex % Inhn. [2]: 96%

O=C(N/N=C/c1cc(Cl)cc(C(F)(F)F)c1O)c1ccccc1 [Compound 27]
inhibition of growth at 0.05 µg/mL [2, 3]: 41% | inhibition of growth at 0.05 µg/mL ([1]; Test Concn. 0.05 μg/mL): 31% | % Inhn. Plus Copper Observed ([1]; Test Concn. 0.05 μg/mL): 95%

[Cl][Cu][Cl] [CuCl2, Copper chloride, reference compound]
% Inhn. by copper chloride alone ([1]; CuCl2, 10 μM (so in the source), copper-plus vs copper-minus medium without test compound, across experiments): 7.0 ± 4.6%

C/C(=N\NC(=O)c1ccc(C)cc1)c1cc(Cl)cc(Cl)c1O [Compound 26]
inhibition of growth at 0.05 µg/mL [2, 3]: 50% | inhibition of growth at 0.05 µg/mL ([1]; Test Concn. 0.05 μg/mL): 54% | % Inhn. Plus Copper Observed ([1]; Test Concn. 0.05 μg/mL): 95%

CC(=O)[O-].CC(=O)[O-].O=C(N/N=C/c1cc(Cl)cc(Cl)c1O)c1ccccc1.[Cu+2] [Compound 72]
Complex % Inhn. [2]: 98%

O=C(N/N=C/c1ccc(Cl)c(Cl)c1O)c1ccccc1 [Compound 21]
inhibition of growth at 0.0125 µg/mL ([1]; Test Concn. 0.0125 μg/mL): 39% | % Inhn. Plus Copper Observed ([1]; Test Concn. 0.0125 μg/mL): 96%

O=C(N/N=C/c1cc(Cl)cc(Cl)c1O)c1ccccc1.[Cl-].[Cl-].[Cu+2] [Compound 75]
Complex % Inhn. [2]: 97%

Cc1ccccc1C(=O)N/N=C/c1cc(Cl)cc(Cl)c1O [Compound 63]
inhibition of growth at 0.05 µg/mL [2, 3]: 23% | inhibition of growth at 0.05 µg/mL ([1]; Test Concn. 0.05 μg/mL): 37% | % Inhn. Plus Copper Observed ([1]; Test Concn. 0.05 μg/mL): 94%

O=C(N/N=C/c1cc(Cl)cc(Cl)c1O)c1ccccc1.O=C(N/N=C/c1cc(Cl)cc(Cl)c1O)c1ccccc1.O=S(=O)([O-])[O-].[Cu+2] [Compound 74]
Complex % Inhn. [2]: 95%

CC(=O)[O-].CC(=O)[O-].O=C(N/N=C/c1cc(Cl)cc(Cl)c1O)c1ccccc1.O=C(N/N=C/c1cc(Cl)cc(Cl)c1O)c1ccccc1.[Cu+2] [Compound 73]
Complex % Inhn. [2]: 97%

C/C(=N\NC(=O)c1ccccc1)c1cc(Cl)cc(Cl)c1O [Compound 6]
inhibition of growth at 0.025 µg/mL ([2]; Synechocystis, Test Concn. 0.025 μg/ml, read-out: Hydrazone % Inhn.): 70% | inhibition of growth at 0.05 µg/mL ([1]; Test Concn. 0.05 μg/mL): 19% | % Inhn. Plus Copper Observed ([1]; Test Concn. 0.05 μg/mL): 99%

O=C(N/N=C/c1cc(Cl)cc(Cl)c1O)c1ccccc1 [Compound 1]
inhibition of growth at 0.05 µg/mL [2, 3]: 35% | inhibition of growth at 0.05 µg/mL ([1]; Test Concn. 0.05 μg/mL): 29% | % Inhn. Plus Copper Observed ([1]; Test Concn. 0.05 μg/mL): 91%

C/C(=N\NC(=O)c1cccc(C)c1)c1cc(Cl)cc(Cl)c1O [Compound 25, 3-methyl-benzoic acid [1-(3,5-dichloro-2-hydroxyphenyl)-ethylidene]-hydrazide]
inhibition of growth at 0.05 µg/mL ([1]; Test Concn. 0.05 μg/mL): 18% | % Inhn. Plus Copper Observed ([1]; Test Concn. 0.05 μg/mL): 92%

O=C(N/N=C/c1cc(Cl)cc(Br)c1O)c1ccccc1O [Compound 18]
inhibition of growth at 0.0125 µg/mL ([1]; Test Concn. 0.0125 μg/mL): 47% | % Inhn. Plus Copper Observed ([1]; Test Concn. 0.0125 μg/mL): 86%

O=C(N/N=C/c1cc(Cl)cc(Br)c1O)c1ccc(Cl)cc1 [Compound 15]
inhibition of growth at 0.00625 µg/mL ([1]; Test Concn. 0.00625 μg/mL): 15% | % Inhn. Plus Copper Observed ([1]; Test Concn. 0.00625 μg/mL): 74%

O=C(N/N=C/c1cc(Cl)cc(Cl)c1O)c1ccccc1.O=C(N/N=C/c1cc(Cl)cc(Cl)c1O)c1ccccc1.[Cl-].[Cl-].[Mn+2] [Compound 77]
Complex % Inhn. [2]: 35%

Source: patent US8906829B2, “Synergistic algicidal compositions including hydrazone derivatives and copper” (Dow AgroSciences LLC, priority 2010, dated 2014)
